A word on the pIC50: it is −log10 of the IC50, conventionally taken in molar units. Low values mean a high IC50, high ones a low IC50.

The source of these data is ChEMBL document CHEMBL1146681, “Design and synthesis of 3,7-diarylimidazopyridines as inhibitors of the VEGF-receptor KDR” (Bioorg Med Chem Lett, 2004).

Each structure is given as a SMILES string. pIC50: −log10 of the molar value.

In assay [1] the target is T1, Vascular endothelial growth factor receptor 2 (Homo sapiens, UniProt P35968). The assay is described as follows: Inhibition of VEGF stimulated phosphorylation of KDR on tyrosine residues in human kidney cells expressing vascular endothelial growth factor receptor 2. Type of assay: cell-based.
T1 sequence (P35968 whole entry): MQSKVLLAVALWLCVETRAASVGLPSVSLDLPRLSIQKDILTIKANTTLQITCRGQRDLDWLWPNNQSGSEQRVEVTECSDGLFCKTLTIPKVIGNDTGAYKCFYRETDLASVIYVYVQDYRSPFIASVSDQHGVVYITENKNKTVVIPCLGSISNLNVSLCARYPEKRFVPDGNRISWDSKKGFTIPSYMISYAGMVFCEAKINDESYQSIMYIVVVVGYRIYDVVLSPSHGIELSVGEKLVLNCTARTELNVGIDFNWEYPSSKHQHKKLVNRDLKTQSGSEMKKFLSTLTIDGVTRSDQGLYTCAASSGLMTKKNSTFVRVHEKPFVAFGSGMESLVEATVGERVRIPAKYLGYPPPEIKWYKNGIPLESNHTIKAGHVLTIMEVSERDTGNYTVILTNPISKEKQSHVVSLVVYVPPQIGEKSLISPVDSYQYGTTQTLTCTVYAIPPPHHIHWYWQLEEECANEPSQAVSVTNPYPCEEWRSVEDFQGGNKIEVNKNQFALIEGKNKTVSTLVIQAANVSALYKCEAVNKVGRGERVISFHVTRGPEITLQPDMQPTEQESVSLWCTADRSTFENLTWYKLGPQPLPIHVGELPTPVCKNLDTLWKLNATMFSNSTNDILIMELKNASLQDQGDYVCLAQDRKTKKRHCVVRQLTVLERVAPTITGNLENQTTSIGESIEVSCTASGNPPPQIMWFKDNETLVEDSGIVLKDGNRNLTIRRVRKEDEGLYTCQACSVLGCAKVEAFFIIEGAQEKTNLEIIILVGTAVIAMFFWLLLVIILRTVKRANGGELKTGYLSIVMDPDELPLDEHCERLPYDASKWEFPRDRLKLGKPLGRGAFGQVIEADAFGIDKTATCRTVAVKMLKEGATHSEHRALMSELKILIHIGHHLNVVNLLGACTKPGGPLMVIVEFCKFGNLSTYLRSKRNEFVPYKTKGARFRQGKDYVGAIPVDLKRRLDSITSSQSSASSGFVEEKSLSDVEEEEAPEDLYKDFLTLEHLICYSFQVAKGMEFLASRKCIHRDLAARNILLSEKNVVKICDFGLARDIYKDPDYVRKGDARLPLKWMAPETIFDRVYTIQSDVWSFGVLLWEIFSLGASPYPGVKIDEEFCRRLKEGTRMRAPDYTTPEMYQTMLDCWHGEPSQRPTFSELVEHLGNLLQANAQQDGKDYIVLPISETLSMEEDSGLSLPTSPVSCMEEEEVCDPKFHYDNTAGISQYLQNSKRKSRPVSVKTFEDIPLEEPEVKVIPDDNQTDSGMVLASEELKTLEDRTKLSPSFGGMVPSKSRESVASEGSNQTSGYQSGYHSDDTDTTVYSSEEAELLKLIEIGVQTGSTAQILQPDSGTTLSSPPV
In assay [2] the target is T1, Vascular endothelial growth factor receptor 2. The experiment in a line: Intrinsic potency against VEGF stimulated KDR phosphorylation. Type of assay: functional.
Assay [3] addresses VEGF-receptor 2 and Fibroblast growth factor receptor 1 (Homo sapiens) (UniProt P35968+P11362). The experiment in a line: Selectivity for VEGF-receptor 2 over fibroblast growth factor receptor 1. Type of assay: protein assay.
Assay [4] has as its target Vascular endothelial growth factor receptor 1 and 2 (Flt-1 and KDR) (Homo sapiens) (UniProt P17948+P35968). The assay is described as follows: Selectivity for VEGF-receptor 2 over fms-like tyrosine kinase 1, VEGF-receptor 1. Type of assay: protein assay.
Assay [5] deals with VEGF-receptor 2 and tyrosine-protein kinase SRC (Homo sapiens) (UniProt P12931+P35968). The experiment in a line: Selectivity for VEGF-receptor 2 over c-Src tyrosine kinase. In kind it is protein assay.
Assay [6] has as its target Vascular endothelial growth factor receptor 2 and 3 (KDR and Flt-4) (Homo sapiens) (UniProt P35916+P35968). The experiment in a line: Selectivity of for VEGF-receptor 2 over fms-like tyrosine kinase-4, VEGF-receptor 3. Type of assay: protein assay.
Assay [7] addresses VEGF-receptor 2 and PDGF-receptor beta (KDR and PDGFR beta) (Homo sapiens) (UniProt P09619+P35968). The experiment in a line: Selectivity for VEGFR2 over platelet-derived growth factor receptor beta.
For assay [8], the target named is T1, Vascular endothelial growth factor receptor 2. The experiment in a line: Inhibition of phosphorylation of poly-Glu/Tyr (4:1) peptide substrate by VEGF-receptor 2 (KDR) kinase.
For assay [9], the target named is Fibroblast growth factor receptor 4 (Homo sapiens) (UniProt P22455). The assay is described as follows: Selectivity for fibroblast growth factor receptor 4.

Vascular endothelial growth factor receptor 1 and 2 (Flt-1 and KDR) (Homo sapiens), sequence (P17948 whole entry, looked up): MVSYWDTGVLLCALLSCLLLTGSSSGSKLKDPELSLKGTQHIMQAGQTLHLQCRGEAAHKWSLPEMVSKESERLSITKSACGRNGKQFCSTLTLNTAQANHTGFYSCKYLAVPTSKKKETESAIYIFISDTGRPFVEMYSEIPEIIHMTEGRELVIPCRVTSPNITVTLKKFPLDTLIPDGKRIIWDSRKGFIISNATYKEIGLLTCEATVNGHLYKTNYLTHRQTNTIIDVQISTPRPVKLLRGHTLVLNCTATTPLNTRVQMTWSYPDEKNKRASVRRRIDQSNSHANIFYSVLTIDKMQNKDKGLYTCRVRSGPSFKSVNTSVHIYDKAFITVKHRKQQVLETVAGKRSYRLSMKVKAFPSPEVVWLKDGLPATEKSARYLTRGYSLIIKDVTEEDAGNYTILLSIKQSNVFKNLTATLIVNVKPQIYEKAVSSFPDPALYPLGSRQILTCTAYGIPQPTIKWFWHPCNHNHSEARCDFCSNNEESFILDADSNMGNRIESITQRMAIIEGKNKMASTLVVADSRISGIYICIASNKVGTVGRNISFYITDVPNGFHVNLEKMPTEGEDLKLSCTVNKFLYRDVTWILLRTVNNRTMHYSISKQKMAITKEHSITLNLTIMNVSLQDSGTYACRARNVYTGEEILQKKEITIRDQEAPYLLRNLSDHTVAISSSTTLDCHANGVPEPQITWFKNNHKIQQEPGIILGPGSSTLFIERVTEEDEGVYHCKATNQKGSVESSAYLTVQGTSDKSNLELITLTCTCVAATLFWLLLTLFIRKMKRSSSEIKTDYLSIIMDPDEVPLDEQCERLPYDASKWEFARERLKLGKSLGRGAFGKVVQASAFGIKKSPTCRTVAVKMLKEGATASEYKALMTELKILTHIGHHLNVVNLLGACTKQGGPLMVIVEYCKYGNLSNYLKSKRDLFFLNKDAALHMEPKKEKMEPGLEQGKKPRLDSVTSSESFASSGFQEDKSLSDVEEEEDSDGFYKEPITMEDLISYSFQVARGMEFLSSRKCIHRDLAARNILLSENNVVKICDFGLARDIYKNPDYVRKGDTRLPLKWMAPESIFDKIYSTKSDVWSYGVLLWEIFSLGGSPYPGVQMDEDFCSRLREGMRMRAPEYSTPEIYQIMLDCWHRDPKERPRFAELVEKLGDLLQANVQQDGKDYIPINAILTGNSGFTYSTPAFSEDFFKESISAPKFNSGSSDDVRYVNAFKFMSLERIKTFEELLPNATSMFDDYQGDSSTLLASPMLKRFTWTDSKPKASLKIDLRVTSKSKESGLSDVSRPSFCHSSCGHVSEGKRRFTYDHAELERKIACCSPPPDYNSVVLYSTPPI
Vascular endothelial growth factor receptor 1 and 2 (Flt-1 and KDR) (Homo sapiens), sequence (P35968 whole entry, looked up): as the sequence (P35968 whole entry) above
VEGF-receptor 2 and Fibroblast growth factor receptor 1 (Homo sapiens), sequence (P11362 whole entry, looked up): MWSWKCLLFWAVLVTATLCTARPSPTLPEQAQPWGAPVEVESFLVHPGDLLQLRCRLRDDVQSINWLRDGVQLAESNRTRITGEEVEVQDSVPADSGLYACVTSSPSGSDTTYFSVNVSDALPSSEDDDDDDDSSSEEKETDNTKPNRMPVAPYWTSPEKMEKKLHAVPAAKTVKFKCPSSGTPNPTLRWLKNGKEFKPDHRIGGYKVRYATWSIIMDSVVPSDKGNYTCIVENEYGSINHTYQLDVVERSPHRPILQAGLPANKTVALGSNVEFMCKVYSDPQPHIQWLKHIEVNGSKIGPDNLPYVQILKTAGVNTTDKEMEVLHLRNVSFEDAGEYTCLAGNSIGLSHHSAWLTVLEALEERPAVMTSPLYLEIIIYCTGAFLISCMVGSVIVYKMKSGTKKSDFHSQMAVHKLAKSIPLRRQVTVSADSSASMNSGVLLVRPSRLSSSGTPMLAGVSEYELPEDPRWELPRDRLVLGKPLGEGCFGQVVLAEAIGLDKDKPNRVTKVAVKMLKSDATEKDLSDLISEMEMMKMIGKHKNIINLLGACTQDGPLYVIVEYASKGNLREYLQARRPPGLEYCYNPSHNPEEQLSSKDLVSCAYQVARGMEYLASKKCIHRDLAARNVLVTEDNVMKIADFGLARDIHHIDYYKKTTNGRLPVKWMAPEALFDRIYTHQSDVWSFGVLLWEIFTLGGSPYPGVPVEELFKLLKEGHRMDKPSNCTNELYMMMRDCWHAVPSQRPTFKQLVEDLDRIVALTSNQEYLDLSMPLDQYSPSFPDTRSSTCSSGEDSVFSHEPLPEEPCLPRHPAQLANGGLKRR
VEGF-receptor 2 and Fibroblast growth factor receptor 1 (Homo sapiens), sequence (P35968 whole entry, looked up): as the sequence (P35968 whole entry) above
Vascular endothelial growth factor receptor 2 and 3 (KDR and Flt-4) (Homo sapiens), sequence (P35916 whole entry, looked up): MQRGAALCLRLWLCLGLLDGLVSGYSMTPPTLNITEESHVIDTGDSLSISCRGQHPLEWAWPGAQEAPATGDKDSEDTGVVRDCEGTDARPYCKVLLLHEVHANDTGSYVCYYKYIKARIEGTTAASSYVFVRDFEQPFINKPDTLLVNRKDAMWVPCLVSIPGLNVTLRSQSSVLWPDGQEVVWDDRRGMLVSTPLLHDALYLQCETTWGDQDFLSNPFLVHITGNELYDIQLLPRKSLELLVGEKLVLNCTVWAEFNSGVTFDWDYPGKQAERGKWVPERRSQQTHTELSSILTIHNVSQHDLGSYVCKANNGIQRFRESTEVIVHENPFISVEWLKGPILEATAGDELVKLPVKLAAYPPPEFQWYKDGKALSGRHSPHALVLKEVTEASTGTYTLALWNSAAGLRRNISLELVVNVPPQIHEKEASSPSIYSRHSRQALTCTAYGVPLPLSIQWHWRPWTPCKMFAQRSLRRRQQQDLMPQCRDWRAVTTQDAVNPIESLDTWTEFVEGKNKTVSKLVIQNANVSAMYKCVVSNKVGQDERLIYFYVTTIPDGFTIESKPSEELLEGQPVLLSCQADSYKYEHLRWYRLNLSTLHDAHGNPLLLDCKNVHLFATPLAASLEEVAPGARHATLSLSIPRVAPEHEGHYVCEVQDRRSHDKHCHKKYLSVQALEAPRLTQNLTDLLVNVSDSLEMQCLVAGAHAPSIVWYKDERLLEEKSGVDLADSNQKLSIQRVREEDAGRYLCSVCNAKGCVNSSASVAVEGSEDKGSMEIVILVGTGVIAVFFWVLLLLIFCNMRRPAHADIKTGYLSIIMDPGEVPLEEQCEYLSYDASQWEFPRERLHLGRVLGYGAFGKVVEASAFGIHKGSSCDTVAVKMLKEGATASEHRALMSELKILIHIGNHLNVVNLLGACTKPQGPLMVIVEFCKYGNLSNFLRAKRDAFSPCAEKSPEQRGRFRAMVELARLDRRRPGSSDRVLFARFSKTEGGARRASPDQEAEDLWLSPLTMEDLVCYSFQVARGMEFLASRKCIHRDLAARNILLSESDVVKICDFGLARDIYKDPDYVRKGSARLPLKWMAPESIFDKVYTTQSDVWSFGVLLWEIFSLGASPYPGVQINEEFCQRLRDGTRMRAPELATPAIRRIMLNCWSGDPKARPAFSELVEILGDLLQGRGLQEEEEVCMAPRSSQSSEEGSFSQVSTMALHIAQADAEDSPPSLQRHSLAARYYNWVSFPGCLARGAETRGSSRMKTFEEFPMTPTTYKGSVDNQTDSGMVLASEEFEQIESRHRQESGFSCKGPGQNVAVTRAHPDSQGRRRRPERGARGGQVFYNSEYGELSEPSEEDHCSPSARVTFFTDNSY
Vascular endothelial growth factor receptor 2 and 3 (KDR and Flt-4) (Homo sapiens), sequence (P35968 whole entry, looked up): as the sequence (P35968 whole entry) above

Take `c1ccc(-c2ccn3c(-c4cccnc4)cnc3c2)cc1`: the pIC50 in assay [1] was 6.03.
Turning to `CC(=O)N1CCN(Cc2ccc(-c3ccn4c(-c5ccccc5)cnc4c3)cc2)CC1`, the pIC50 was 7.11 in assay [1] and 6.52 in assay [2].
As to `CS(=O)(=O)N1CCN(Cc2ccc(-c3ccn4c(-c5ccccc5)cnc4c3)cc2)CC1`, the pIC50 is 7.89 in [1] and 6.96 in [2].
For the compound `O=c1cc(-c2ccn3c(-c4ccccc4)cnc3c2)ccn1CCCN1CCCCC1`, the Selectivity is 60 in assay [3]; 3.1 in assay [4]; 68 in assay [5]; 2.8 in assay [6]; 1 in assay [7]. Moreover, the pIC50 is 7.55 in assay [1] and 7.29 in assay [2].
In the case of `COc1ccc(-c2cnc3cc(-c4ccccc4)ccn23)cn1`, the pIC50 in assay [8] was 5.55.
For `CN(C)CC1CCCN(CCCn2ccc(-c3ccn4c(-c5ccccc5)cnc4c3)cc2=O)C1` (configuration not stated), the pIC50 was 7.17 in assay [1] and 6.55 in assay [2].
`NC(=O)N1CCN(Cc2ccc(-c3ccn4c(-c5ccccc5)cnc4c3)cc2)CC1`: the pIC50 in assay [1] was 7.16.
In the case of `c1ccc(-c2ccn3c(-c4nccs4)cnc3c2)cc1`, the Selectivity was found to be 47 in assay [3]; 23 in assay [9]; 7 in assay [4]; 165 in [5]; 1.7 in assay [6]; 1.4 in [7]. For the same compound, in assay [1], the pIC50 was 7.38.
Compound `COCCN(C)CCCn1ccc(-c2ccn3c(-c4ccccc4)cnc3c2)cc1=O` showed a pIC50 in assay [1] of 7.02.
In the case of `COc1cccc(-c2cnc3cc(-c4ccccc4)ccn23)n1`, the pIC50 in assay [1] is 6.62.
Turning to `CNC(=O)N1CCN(Cc2ccc(-c3ccn4c(-c5ccccc5)cnc4c3)cc2)CC1`, the negative-log IC50 (pIC50) in assay [1] was 7.28; in [2], 6.39.
In assay [1], `c1ccc(-c2ccn3c(-c4ccccc4)cnc3c2)cc1` showed a pIC50 of 7.01.
Same read-out and setting: the value for `O=c1cc(-c2ccn3c(-c4ccccc4)cnc3c2)ccn1CCCO` was 6.92.
In turn, `c1ccc(-c2ccn3c(-c4cnsc4)cnc3c2)cc1` gave a pIC50 in [1] of 7.30.
As to `c1ccc(-c2ccn3c(-c4ccncc4)cnc3c2)cc1`, in assay [1], the pIC50 is 6.84.
Consider `c1ccc(-c2ccn3c(-c4cncs4)cnc3c2)cc1`, for which the pIC50 in [1] is 7.00.
